US20250057793A1, “BENZOIC ACID SALTS FOR TREATMENT OF NERVOUS SYSTEM INJURIES AND DISORDERS” (The United States Government as represented by the …, priority 2021, published 2025)

How the values were obtained:
[1] = system: mice with TBI; experiment: Side effects of oral NaB in TBI mice; format: in vivo, mouse
[2] = system: oligodendroglial progenitor cells (OPCs); experiment: Maturation of oligodendroglial progenitor cells (OPCs) into oligodendrocytes; format: cell-based, mouse
Method: FIGS. 15A-15L: Effect of sodium benzoate (NaB) on the maturation of oligodendroglial progenitor cells (OPCs) into oligodendrocytes. OPCs were isolated from P1˜P2 neonatal mouse pups, cultured in OPC media for 4 days in vitro (DIV) followed by treatment with 100 μM NaB and sodium formate (NaFO) in the absence of FGF and PDGF.
FIG. 15A) After 18 h of 100 μM NaB treatment in serum-free condition, cells were fixed and then dual immuno-stained with MBP (red) and OPC marker NG2 (green). Nuclei were stained with DAPI (blue). FIG. 15B) Similarly, OPCs were stained with PLP (red) and A2B5 (green) under similar treatment condition. Quantification of MBP+(FIG. 15C), NG2+(FIG. 15D), PLP+(FIG. 15E), and A2B5+(FIG. 15F) cells as a percentage of total cells (DAPI+). Average 5 fields per slide, total 3 slides. Results are mean+SEM. ***p<0.001. FIG. 15G) For protein expression, cells were treated with different doses of NaB for 18 h under serum free condition and then immunoblotted with PLP and MOG. FIG. 15H) Densitometric analyses of the bands relative to beta actin were done for PLP and MOG. ^ap<0.001 vs. control PLP; ^bp<0.005 vs. control MOG. FIG. 151) Cells were treated with NaB (100 μM) and NaFO (100 μM) for 4 h under serum-free condition followed by monitoring the mRNA expression of myelin-specific genes by real-time PCR (ap<0.01 vs. control PLP; ^bp<0.01 vs. control MOG; cp<0.01 vs. control MBP; dp<0.01 vs. control CNPase). OPCs were cultured on the top of randomly-oriented polycaprolactone nanofibers (Nanofiber Solutions; Cat #Z694576) for 7 days. After that, these cells were treated with 100 μM NaB (FIG. 15J) and NaFO (K) for additional 2 days followed by immunofluorescence analysis for MBP (red) (FIG. 15J, control; FIG. 15K, NaB; FIG. 15L, NaFO). […] Representative 3D constructed images of OPCs adhered to nanofibers were also shown at the right side.

[3] = system: OPCs cultured on polycaprolactone nanofibers; experiment: Myelination of synthetic polycaprolactone nanofibers by OPCs; format: cell-based, mouse; settings: 100 μM, 2 days after 7 days culture on nanofibers
Method: FIG. 15A) After 18 h of 100 μM NaB treatment in serum-free condition, cells were fixed and then dual immuno-stained with MBP (red) and OPC marker NG2 (green). Nuclei were stained with DAPI (blue). FIG. 15B) Similarly, OPCs were stained with PLP (red) and A2B5 (green) under similar treatment condition. Quantification of MBP+(FIG. 15C), NG2+(FIG. 15D), PLP+(FIG. 15E), and A2B5+(FIG. 15F) cells as a percentage of total cells (DAPI+). Average 5 fields per slide, total 3 slides. Results are mean+SEM. ***p<0.001. FIG. 15G) For protein expression, cells were treated with different doses of NaB for 18 h under serum free condition and then immunoblotted with PLP and MOG. FIG. 15H) Densitometric analyses of the bands relative to beta actin were done for PLP and MOG. ^ap<0.001 vs. control PLP; ^bp<0.005 vs. control MOG. FIG. 151) Cells were treated with NaB (100 μM) and NaFO (100 μM) for 4 h under serum-free condition followed by monitoring the mRNA expression of myelin-specific genes by real-time PCR (ap<0.01 vs. control PLP; ^bp<0.01 vs. control MOG; cp<0.01 vs. control MBP; dp<0.01 vs. control CNPase). OPCs were cultured on the top of randomly-oriented polycaprolactone nanofibers (Nanofiber Solutions; Cat #Z694576) for 7 days. […]

[4] = system: cuprizone-intoxicated mice; experiment: Remyelination of corpus callosum in cuprizone-intoxicated mouse model of demyelination; format: in vivo; settings: cuprizone diet 5 weeks, then NaB 50 mg/kg body wt/d oral gavage 3 weeks
Method: FIGS. 16A-16C: Oral NaB stimulates the maturation of OPCs in vivo in the corpus callosum of cuprizone-intoxicated mice. C57/BL6 mice (8-10 week old; male) were fed cuprizone-containing diet (Envigo) for 5 weeks followed by treatment with NaB (50 mg/kg body wt/d) orally via gavage. FIG. 16A) After 3 weeks of treatment with NaB, corpus callosum sections were double-labeled for PLP and A2B5. Mean fluorescence intensity (MFI) of A2B5 (FIG. 16B) and PLP (FIG. 16C) were quantified from one section (two images per section) of each of 5 mice group. Results are mean+SEM of 5 mice per group. ***p<0.001; **p<0.01.
FIGS. 17A-17H: Effect of NaB on myelination in vivo in the corpus callosum of cuprizone-intoxicated mice. C57/BL6 mice (8-10 week old; male; n=5) were fed cuprizone-containing diet (Envigo) for 5 weeks followed by treatment with NaB (50 mg/kg body wt/d) orally via gavage. After 3 weeks of treatment with NaB, corpus callosum sections were immunostained MBP (FIG. 17A) and PLP (FIG. 17B). Mean fluorescence intensity (MFI) of MBP (FIG. 17C) and PLP (FIG. 17D) were quantified from one section (two images per section) of each of 5 mice group. Results are mean+SEM of 5 mice per group. **p<0.01; *p<0.05. FIG. 17E) Corpus callosum sections were stained for luxol fast blue (LFB). FIG. 17F) For electron microscopic studies, 50 μm thick sagittal sections were prepared and stained followed by analysis of corpus callosum sections for different parameters to evaluate axonal ultrastructures. FIG. 17G) G score was calculated in 75 axons per group for all three groups. FIG. 17H) Percentage of myelinated axons was calculated in 7 randomly selected corpus callosum sections of 5 mice per group. ***p<0.001.

[5] = system: LPS-stimulated microglia; settings: cited from earlier work
[6] = mice treated with cinnamon orally; cited from earlier work
[7] = if consumed in excess; cited from earlier work
[8] = system: TBI mice; experiment: Synapse maturation markers (PSD-95, NR2A, GluR1) in brain of TBI mice; format: in vivo, mouse; settings: 21 days post-injury, 50 mg/kg/day oral gavage
Method: FIGS. 1lA-11H. Restoration of PSD-95, NR2A and GluR1 in the hippocampus of TBI mice by oral administration of GTB. […] Twenty-one days after CCI injury, brain sections were double-labeled for NeuN and PSD-95 (FIG. 11A, control; FIG. 111B, CCI; FIG. 11C, CCI+GTB; FIG. 11D, CCI+Vehicle). Results represent analysis of one section of each of six mice per group. […] FIG. 11E. Actin was run as a loading control. […] Data are expressed as mean+SD. Statistical analyses were performed with one way ANOVA.

[9] = system: Huntington pathology in mice; settings: oral, 50 mg/kg body wt/d; cited from earlier work
[10] = system: experimental allergic encephalomyelitis (EAE) in mice; settings: oral, 50 mg/kg body wt/d; cited from earlier work
[11] = different doses of NaB, 18 h, serum free

In the case of `O=C([O-])c1ccccc1.[Na+]` [NaB, Sodium benzoate], the “side effects (decrease in body weight, loss of hair, fecal boli, infection, untoward behavior)” value [1] is reported as “did not cause any side effects”, the “mRNA expression of myelin-specific genes (MBP, PLP, MOG, CNPase), real-time PCR” value ([2]; 100 μM, 4 h, serum-free) is reported as “corroborated” and the “differentiation/maturation of OPCs into oligodendrocytes (MBP+, PLP+, NG2+, A2B5+ cells)” value ([2]; 100 μM, 18 h, serum-free, absence of FGF and PDGF) is reported as “stimulated”. For the same molecule, the “level of MOG in OPCs (immunoblot)” value [2, 11] was “increased”, the “level of PLP in OPCs (immunoblot)” value [2, 11] was “increased” and the “myelination of synthetic fibers (MBP immunofluorescence)” value [3] was “stimulation of myelination”. For the same molecule, the “MBP in corpus callosum” value [4] was “increased”, the “level of A2B5 in corpus callosum” value [4] was “decreased” and the “level of PLP in corpus callosum” value [4] was “increased”. The “maturation of OPCs in vivo in the corpus callosum” value [4] was “stimulates”, the “remyelination in the corpus callosum” value [4] was “can promote remyelination” and the “level of TLR4” value ([5]; LPS-stimulated microglia) was “has no effect”. The “LPS-induced expression of iNOS and proinflammatory cytokines” value ([5]; microglia) was “inhibits”, the p21ras activation ([5]; microglial cells) was “suppression” and the “presence of NaB in the brain” value [6] was “detected in the brain”. The excretion [7] was “secreted through the urine”.

With `O=C(OCC(COC(=O)c1ccccc1)OC(=O)c1ccccc1)c1ccccc1` [GTB, Glyceryl Tribenzoate] the “level of PSD-95” value ([8]; brain (cortex, hippocampus)) was “upregulated”, the “level of GluR1” value ([8]; hippocampus) was “increased” and the “level of NR2A” value ([8]; hippocampus) was “increased”. The Huntington pathology [9] was “alleviates” and the “adoptive transfer of EAE” value [10] was “inhibits”.
